Data as given in US10813890B2, “Pharmaceutical combination” (Gruenenthal GmbH, priority 2010, dated 2020).
Where a name gives a salt, the structure may show the parent alone. Read-outs that look alike come from different tables or passages of the source.

System: inflamed rat hind paw
Assay: Randall-Selitto test in rats (carrageenan-induced acute inflammation, mechanical nociceptive threshold)
Details: for ED50: Rattus norvegicus, 0.25 h, read-out: ED50 (substance applied alone); for analgesic effect: i.p.; for analgesic effect / timepoint of peak effect: substance applied alone; for timepoint of peak effect: p. appl., timepoint of first measurement

Compound	ED50 (ip) [mg/kg]	analgesic effect	timepoint of peak effect [min]	ED50 (iv) [mg/kg]
CC12CC3CC(C)(C1)CC(N)(C3)C2 [memantine hydrochloride]	19.1	dose-dependent analgesic effect	15	
CNC1(c2ccccc2Cl)CCCCC1=O (racemic) [ketamine hydrochloride, (R,S)-ketamine hydrochloride]	20.2	dose-dependent analgesic effect	15	
CC[C@@H](c1cccc(O)c1)[C@@H](C)CN(C)C [tapentadol hydrochloride]			15	1.75
